Numbering of substitutions follows the chain as printed. Entries after “also recorded” stand apart in the source; their conditions may differ.
How the values were obtained:
Experiment in all cases: MMTV luciferase reporter assay in Cos-7 cells
Format in all cases: cell-based
GR Q642L = target: T1, GR Q642L (Homo sapiens, UniProt P04150, Q642L); conditions: Cos-7, MMTV-Luc
T1 construct: reverse mutations in the full length GR receptor (P637S and Q642L); expressed in transfected cells; host or cells: Cos-7
T1 sequence (P04150 1-777 Q642L): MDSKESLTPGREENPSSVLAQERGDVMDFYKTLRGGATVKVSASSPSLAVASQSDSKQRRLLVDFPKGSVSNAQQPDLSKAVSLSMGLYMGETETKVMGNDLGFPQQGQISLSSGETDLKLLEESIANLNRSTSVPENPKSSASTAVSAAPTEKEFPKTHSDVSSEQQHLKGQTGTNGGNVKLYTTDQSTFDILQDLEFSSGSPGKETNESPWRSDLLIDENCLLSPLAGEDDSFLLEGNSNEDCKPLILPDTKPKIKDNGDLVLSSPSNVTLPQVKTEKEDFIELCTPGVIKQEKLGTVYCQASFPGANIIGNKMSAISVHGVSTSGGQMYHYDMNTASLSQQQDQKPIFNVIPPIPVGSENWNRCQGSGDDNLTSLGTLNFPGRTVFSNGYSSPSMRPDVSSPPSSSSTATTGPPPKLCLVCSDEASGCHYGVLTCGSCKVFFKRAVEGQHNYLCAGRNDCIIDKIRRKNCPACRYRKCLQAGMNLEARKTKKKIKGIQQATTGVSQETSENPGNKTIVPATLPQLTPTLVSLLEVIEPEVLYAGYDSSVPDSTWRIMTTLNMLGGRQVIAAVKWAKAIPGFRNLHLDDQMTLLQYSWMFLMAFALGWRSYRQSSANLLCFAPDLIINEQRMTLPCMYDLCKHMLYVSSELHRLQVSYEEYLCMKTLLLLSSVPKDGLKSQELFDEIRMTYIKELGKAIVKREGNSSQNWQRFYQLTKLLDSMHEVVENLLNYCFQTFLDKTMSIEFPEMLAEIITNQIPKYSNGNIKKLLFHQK
Description: (§1) Cos-7 cells were maintained in DMEM containing 10% fetal bovine serum (FBS) and were transiently transfected using Lipofectamine 2000 (Invitrogen). […] Cells were transfected in Opti-MEM with 400 ng of MMTV-Luc reporter plasmid and 400 ng of receptor expression vector (pRS vector) encoding full-length GR and MR respectively (ATCC). […] Luciferase data were normalized to Renilla activity as an internal control.
(§2) To validate the role of the key MR pocket residues in hormone recognition, the inventors mutated S843 and L848 to the corresponding GR residues (S843P and L848Q) within the context of the full length wild type receptor. […] We also performed reverse mutations in the full length GR receptor (P637S and Q642L) and tested them in the same MMTV reporter.

GR Q642L/P637S = target: T2, GR Q642L/P637S (Homo sapiens, UniProt P04150, P637S/Q642L); conditions: additional mutation of P637S
T2 construct: reverse mutations in the full length GR receptor (P637S and Q642L); expressed in transfected cells; host or cells: Cos-7
T2 sequence (P04150 1-777 P637S/Q642L): T1 sequence (P04150 1-777 Q642L) with P637S
Description: as §1, §2

MR L848Q/S843P = target: T3, MR L848Q/S843P (Homo sapiens, UniProt P08235, L848Q/S843P); conditions: double mutation
T3 construct: (S843P and L848Q) within the context of the full length wild type receptor; expressed in transfected cells; host or cells: Cos-7
T3 sequence (P08235 1-984 S843P/L848Q): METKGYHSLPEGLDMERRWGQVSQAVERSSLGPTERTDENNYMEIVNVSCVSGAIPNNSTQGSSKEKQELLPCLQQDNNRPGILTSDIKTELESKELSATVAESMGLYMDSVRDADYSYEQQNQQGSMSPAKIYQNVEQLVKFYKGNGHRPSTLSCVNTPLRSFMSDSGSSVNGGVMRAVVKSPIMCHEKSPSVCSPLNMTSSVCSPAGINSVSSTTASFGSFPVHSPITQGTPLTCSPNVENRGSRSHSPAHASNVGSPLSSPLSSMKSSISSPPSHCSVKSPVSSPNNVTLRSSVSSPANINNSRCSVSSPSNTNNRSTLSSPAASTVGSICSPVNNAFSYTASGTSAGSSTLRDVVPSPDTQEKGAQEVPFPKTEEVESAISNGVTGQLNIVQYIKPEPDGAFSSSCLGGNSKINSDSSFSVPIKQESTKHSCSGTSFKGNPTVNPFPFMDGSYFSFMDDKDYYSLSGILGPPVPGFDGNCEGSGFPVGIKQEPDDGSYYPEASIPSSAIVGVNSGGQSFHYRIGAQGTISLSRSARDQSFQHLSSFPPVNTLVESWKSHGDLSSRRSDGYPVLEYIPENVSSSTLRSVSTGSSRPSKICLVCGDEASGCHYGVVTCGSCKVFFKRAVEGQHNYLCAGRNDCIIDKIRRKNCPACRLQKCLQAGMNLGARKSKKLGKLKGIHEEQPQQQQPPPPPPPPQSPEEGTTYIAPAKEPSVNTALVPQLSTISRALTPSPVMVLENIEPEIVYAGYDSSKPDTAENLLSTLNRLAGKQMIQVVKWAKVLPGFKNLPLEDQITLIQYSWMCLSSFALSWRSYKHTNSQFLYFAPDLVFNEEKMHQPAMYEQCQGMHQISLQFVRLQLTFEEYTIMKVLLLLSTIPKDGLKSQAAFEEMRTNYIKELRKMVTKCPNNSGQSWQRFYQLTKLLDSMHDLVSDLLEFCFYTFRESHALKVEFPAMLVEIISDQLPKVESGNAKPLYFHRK
Description: as §1, §2

SMILES | activation of GR Q642L (GR Q642L) | activation of GR Q642L/P637S (GR Q642L/P637S) | activation of MR L848Q/S843P (MR L848Q/S843P)
C[C@]12C[C@H](O)[C@H]3[C@@H](CCC4=CC(=O)CC[C@@]43C)[C@@H]1CC[C@@H]2C(=O)CO [corticosterone] | remained intact | severely affects activation | totally abolished; also recorded: severely affects activation
C[C@]12CCC(=O)C=C1CC[C@@H]1[C@@H]2[C@@H](O)C[C@@]2(C)[C@H]1CC[C@]2(O)C(=O)CO [cortisol] | completely abolished activation; also recorded: inability of cortisol to activate | severely affects activation | totally abolished; also recorded: severely affects activation
